From PMC5218480 (PLoS ONE, 2017) come the findings set out here.

In this experiment the test system is MV-4-11 cells. Put plainly: Gene expression microarray analysis (Affymetrix PrimeView) and GSEA. The settings on record: ProbeSet 11725787_a_at; LIST B. Also on record: RFU PODN (11730768_x_at) / Fold change /veh PODN (11730768_x_at) / RFU LINC00158 (11744669_a_at) / Fold change /veh LINC00158 (11744669_a_at) / RFU DUSP10 (11751237_a_at) / Fold change /veh DUSP10 (11751237_a_at) / RFU ID3 (11757404_x_at) / Fold change /veh ID3 (11757404_x_at) / RFU PLEKHG5 (11737974_s_at) / Fold change /veh PLEKHG5 (11737974_s_at) / RFU LRRC4B (11730491_at) / Fold change /veh LRRC4B (11730491_at) / RFU GIMAP4 (11747438_a_at) / Fold change /veh GIMAP4 (11747438_a_at) / RFU KRT8 (11758183_x_at) / Fold change /veh KRT8 (11758183_x_at) / RFU CNN1 (11734310_a_at) / Fold change /veh CNN1 (11734310_a_at) / RFU VPS37D (11726825_at) / Fold change /veh VPS37D (11726825_at) / RFU C10orf10 (11716522_x_at) / Fold change /veh C10orf10 (11716522_x_at) / RFU KIR2DL2 /// KIR2DL4 /// KIR2DL5A /// KIR2DL5B /// KIR2DS1 /// KIR2DS2 /// KIR2DS3 /// KIR2DS4 /// KIR3DL3 /// KIR3DL3 /// KIR3DS1 (11738374_at) / Fold change /veh KIR2DL2 /// KIR2DL4 /// KIR2DL5A /// KIR2DL5B /// KIR2DS1 /// KIR2DS2 /// KIR2DS3 /// KIR2DS4 /// KIR3DL3 /// KIR3DL3 /// KIR3DS1 (11738374_at) / RFU C1QL1 (11718748_at) / Fold change /veh C1QL1 (11718748_at) / RFU TMPRSS4 (11747572_a_at) / Fold change /veh TMPRSS4 (11747572_a_at) / RFU HAMP (11756126_x_at) / Fold change /veh HAMP (11756126_x_at) / RFU RNFT2 (11725882_a_at) / Fold change /veh RNFT2 (11725882_a_at) / RFU NR4A2 (11747474_a_at) / Fold change /veh NR4A2 (11747474_a_at) / RFU ABCC12 (11746883_a_at) / Fold change /veh ABCC12 (11746883_a_at) / RFU TMEM136 (11760407_x_at) / Fold change /veh TMEM136 (11760407_x_at) / RFU CLDN22 /// WWC2 (11732394_at) / Fold change /veh CLDN22 /// WWC2 (11732394_at) / RFU HLA-DPB1 (11760878_x_at) / Fold change /veh HLA-DPB1 (11760878_x_at) / RFU SPINT1 (11716480_a_at) / Fold change /veh SPINT1 (11716480_a_at) / RFU GAP43 (11754022_s_at) / Fold change /veh GAP43 (11754022_s_at) / RFU A4GNT (11735810_at) / Fold change /veh A4GNT (11735810_at) / RFU PRB3 (11715151_x_at) / Fold change /veh PRB3 (11715151_x_at) / RFU TUBB4B (11761932_at) / Fold change /veh TUBB4B (11761932_at) / RFU CAPN14 (11732068_a_at) / Fold change /veh CAPN14 (11732068_a_at) / RFU TMCC2 (11721928_a_at) / Fold change /veh TMCC2 (11721928_a_at) / RFU IRGQ (11745062_a_at) / Fold change /veh IRGQ (11745062_a_at) / RFU FAM174B (11720279_a_at) / Fold change /veh FAM174B (11720279_a_at) / RFU TMPRSS4 (11748680_a_at) / Fold change /veh TMPRSS4 (11748680_a_at) / RFU FAM212B (11763350_a_at) / Fold change /veh FAM212B (11763350_a_at) / RFU PLEKHG5 (11743358_a_at) / Fold change /veh PLEKHG5 (11743358_a_at) / RFU ZSCAN30 (11745921_a_at) / Fold change /veh ZSCAN30 (11745921_a_at) / RFU CMKLR1 (11741424_a_at) / Fold change /veh CMKLR1 (11741424_a_at) / RFU LOC101060620 /// MAPK8IP1 (11723275_at) / Fold change /veh LOC101060620 /// MAPK8IP1 (11723275_at) / RFU SPTSSB (11747773_x_at) / Fold change /veh SPTSSB (11747773_x_at) / RFU PRSS12 (11739890_at) / Fold change /veh PRSS12 (11739890_at) / RFU BIN1 (11741810_x_at) / Fold change /veh BIN1 (11741810_x_at) / RFU WNT11 (11732464_a_at) / Fold change /veh WNT11 (11732464_a_at) / RFU C10orf10 (11716521_a_at) / Fold change /veh C10orf10 (11716521_a_at) / RFU C5orf56 (11738089_at) / Fold change /veh C5orf56 (11738089_at) / RFU CYB561 (11721691_x_at) / Fold change /veh CYB561 (11721691_x_at) / RFU ANKRD19P (11752326_a_at) / Fold change /veh ANKRD19P (11752326_a_at) / RFU OR2T12 /// OR2T33 /// OR2T8 (11738714_s_at) / Fold change /veh OR2T12 /// OR2T33 /// OR2T8 (11738714_s_at) / RFU VCAN (11748164_a_at) / Fold change /veh VCAN (11748164_a_at) / RFU JSRP1 (11732532_at) / Fold change /veh JSRP1 (11732532_at) / RFU KRTAP10-11 (11738290_x_at) / Fold change /veh KRTAP10-11 (11738290_x_at) / RFU MYO3A (11730013_a_at) / Fold change /veh MYO3A (11730013_a_at) / RFU EBF3 (11725865_a_at) / Fold change /veh EBF3 (11725865_a_at) / RFU CAMK2N1 (11719241_x_at) / Fold change /veh CAMK2N1 (11719241_x_at) / RFU C5orf56 (11738088_a_at) / Fold change /veh C5orf56 (11738088_a_at) / RFU OLFML3 (11715873_a_at) / Fold change /veh OLFML3 (11715873_a_at) / RFU LOC100653217 /// NTM (11731650_a_at) / Fold change /veh LOC100653217 /// NTM (11731650_a_at) / RFU MAPK11 (11762145_a_at) / Fold change /veh MAPK11 (11762145_a_at) / RFU FIZ1 (11724087_x_at) / Fold change /veh FIZ1 (11724087_x_at) / RFU OASL (11726364_x_at) / Fold change /veh OASL (11726364_x_at) / RFU SOX15 (11748057_x_at) / Fold change /veh SOX15 (11748057_x_at) / RFU CD79A (11719716_a_at) / Fold change /veh CD79A (11719716_a_at) / RFU HIST1H1D (11736915_at) / Fold change /veh HIST1H1D (11736915_at) / RFU CASKIN2 (11723855_a_at) / Fold change /veh CASKIN2 (11723855_a_at) / RFU LOC730098 (11760151_x_at) / Fold change /veh LOC730098 (11760151_x_at) / RFU OR4N2 (11742367_at) / Fold change /veh OR4N2 (11742367_at) / RFU PRRT2 (11749266_a_at) / Fold change /veh PRRT2 (11749266_a_at) / RFU SNX32 (11753110_a_at) / Fold change /veh SNX32 (11753110_a_at) / RFU CDHR5 (11726645_a_at) / Fold change /veh CDHR5 (11726645_a_at) / RFU RCAN1 (11760418_a_at) / Fold change /veh RCAN1 (11760418_a_at) / RFU FAM167A (11723789_a_at) / Fold change /veh FAM167A (11723789_a_at) / RFU FAM26E (11764081_at) / Fold change /veh FAM26E (11764081_at) / RFU ISYNA1 (11749810_s_at) / Fold change /veh ISYNA1 (11749810_s_at) / RFU ACY1 (11761880_at) / Fold change /veh ACY1 (11761880_at) / RFU 11764098_at / Fold change /veh 11764098_at / RFU SAMD14 (11745864_x_at) / Fold change /veh SAMD14 (11745864_x_at) / RFU NPB (11741838_a_at) / Fold change /veh NPB (11741838_a_at) / RFU TMPRSS6 (11731388_a_at) / Fold change /veh TMPRSS6 (11731388_a_at) / RFU KRTAP10-2 (11738614_at) / Fold change /veh KRTAP10-2 (11738614_at) / RFU ARHGAP8 /// PRR5-ARHGAP8 (11727945_x_at) / Fold change /veh ARHGAP8 /// PRR5-ARHGAP8 (11727945_x_at) / RFU KRTAP5-7 /// NADSYN1 (11734609_at) / Fold change /veh KRTAP5-7 /// NADSYN1 (11734609_at) / RFU RASL12 (11751679_a_at) / Fold change /veh RASL12 (11751679_a_at) / RFU CDKN2B (11736163_a_at) / Fold change /veh CDKN2B (11736163_a_at) / RFU PRF1 (11729649_at) / Fold change /veh PRF1 (11729649_at) / RFU, ZNF638 /// ZNF638-IT1 / Fold change vs veh, ZNF638 /// ZNF638-IT1 / RFU, PANK3 / Fold change vs veh, PANK3 / RFU, SH3YL1 / Fold change vs veh, SH3YL1 / RFU, ZEB2 / Fold change vs veh, ZEB2 / RFU, NRIP1 / Fold change vs veh, NRIP1 / RFU, PTTG1IP / Fold change vs veh, PTTG1IP / RFU, CAPN2 / Fold change vs veh, CAPN2 / RFU, MED14 / Fold change vs veh, MED14 / RFU, SNORA58 / Fold change vs veh, SNORA58 / RFU, C1orf63 / Fold change vs veh, C1orf63 / RFU, LRRFIP1 / Fold change vs veh, LRRFIP1 / RFU, NDUFAF7 / Fold change vs veh, NDUFAF7 / RFU, SLC12A2 / Fold change vs veh, SLC12A2 / RFU, IBTK / Fold change vs veh, IBTK / RFU, ESF1 / Fold change vs veh, ESF1 / Fold change vs veh, TMEM50B / RFU, TAOK1 / Fold change vs veh, TAOK1 / RFU, ACBD3 / Fold change vs veh, ACBD3 / RFU, TMA16 / Fold change vs veh, TMA16 / RFU, RWDD3 / Fold change vs veh, RWDD3 / RFU, BCAT1 / Fold change vs veh, BCAT1 / RFU, EDEM3 / Fold change vs veh, EDEM3 / RFU, TMEM33 / Fold change vs veh, TMEM33 / RFU, WDR75 / Fold change vs veh, WDR75 / RFU, AHCTF1 / Fold change vs veh, AHCTF1 / RFU, TFRC / Fold change vs veh, TFRC / RFU, ZDHHC17 / Fold change vs veh, ZDHHC17 / RFU, NOM1 / Fold change vs veh, NOM1 / RFU, ARL8B / Fold change vs veh, ARL8B / RFU, ZBTB11 / Fold change vs veh, ZBTB11 / RFU, TAMM41 / Fold change vs veh, TAMM41 / RFU, KIAA1704 /// LOC100996395 / Fold change vs veh, KIAA1704 /// LOC100996395 / RFU, ING1 / Fold change vs veh, ING1 / RFU, TRMT61B / Fold change vs veh, TRMT61B / RFU, FUBP3 / Fold change vs veh, FUBP3 / RFU, TP53 / Fold change vs veh, TP53 / RFU, TNKS2 / Fold change vs veh, TNKS2 / RFU, ZFP14 / Fold change vs veh, ZFP14 / RFU, ACTR2 / Fold change vs veh, ACTR2 / RFU, PPP3R1 / Fold change vs veh, PPP3R1 / RFU, PIK3R1 / Fold change vs veh, PIK3R1 / RFU, HNRNPA1 / Fold change vs veh, HNRNPA1 / RFU, RNF170 / Fold change vs veh, RNF170 / RFU, ZNF28 / Fold change vs veh, ZNF28 / RFU, RNGTT / Fold change vs veh, RNGTT / RFU, OGT / Fold change vs veh, OGT / RFU, BRD1 / Fold change vs veh, BRD1 / RFU, MARS / Fold change vs veh, MARS / RFU, ZNF655 / Fold change vs veh, ZNF655 / RFU, FAHD1 / Fold change vs veh, FAHD1 / RFU, BDP1 / Fold change vs veh, BDP1 / RFU, LRRCC1 / Fold change vs veh, LRRCC1 / RFU, ARID1A / Fold change vs veh, ARID1A / RFU, ZNF146 / Fold change vs veh, ZNF146 / RFU, ZNF330 / Fold change vs veh, ZNF330 / RFU, GPN3 / Fold change vs veh, GPN3 / RFU, C9orf123 / Fold change vs veh, C9orf123 / RFU, N4BP2L2 / Fold change vs veh, N4BP2L2 / RFU, ARFIP1 / Fold change vs veh, ARFIP1 / RFU, FAM179B / Fold change vs veh, FAM179B / RFU, BCL10 / Fold change vs veh, BCL10 / RFU, UHRF1BP1L / Fold change vs veh, UHRF1BP1L / RFU, BET1 / Fold change vs veh, BET1 / RFU, CNOT2 / Fold change vs veh, CNOT2 / RFU, ZNF268 / Fold change vs veh, ZNF268 / Fold change vs veh, ZNF507 / RFU, DGCR2 / Fold change vs veh, DGCR2 / RFU, WDSUB1 / Fold change vs veh, WDSUB1 / Fold change vs veh, HSP90B1 /// MIR3652 / RFU, ADSS / Fold change vs veh, ADSS / RFU, GK / Fold change vs veh, GK / RFU, ZNF148 / Fold change vs veh, ZNF148 / RFU, TAF9 / Fold change vs veh, TAF9 / RFU, SLC1A5 / Fold change vs veh, SLC1A5 / RFU, SLMO2 / Fold change vs veh, SLMO2 / RFU, ABCC4 / Fold change vs veh, ABCC4 / RFU, LOC101060439 /// RAP1B / Fold change vs veh, LOC101060439 /// RAP1B / RFU, RFX7 / Fold change vs veh, RFX7 / RFU, GTPBP10 / Fold change vs veh, GTPBP10 / RFU, CNEP1R1 / Fold change vs veh, CNEP1R1 / RFU, BIVM-ERCC5 /// ERCC5 / Fold change vs veh, BIVM-ERCC5 /// ERCC5 / RFU, ILF3 / Fold change vs veh, ILF3 / RFU 11762660_at / Fold change /veh 11762660_at / RFU VCAN (11757783_s_at) / Fold change /veh VCAN (11757783_s_at) / RFU DDX43 (11728927_at) / Fold change /veh DDX43 (11728927_at) / RFU KRT8 (11758188_x_at) / Fold change /veh KRT8 (11758188_x_at) / RFU NKD1 (11759106_at) / Fold change /veh NKD1 (11759106_at) / RFU SRD5A1 (11742802_a_at) / Fold change /veh SRD5A1 (11742802_a_at) / RFU TPSAB1 /// TPSB2 (11721975_s_at) / Fold change /veh TPSAB1 /// TPSB2 (11721975_s_at) / RFU GSTM3 (11746129_a_at) / Fold change /veh GSTM3 (11746129_a_at) / RFU IL23R (11737362_x_at) / Fold change /veh IL23R (11737362_x_at) / RFU TMEM51 (11727254_a_at) / Fold change /veh TMEM51 (11727254_a_at) / RFU PIWIL2 (11732686_x_at) / Fold change /veh PIWIL2 (11732686_x_at) / RFU ORM1 (11744905_x_at) / Fold change /veh ORM1 (11744905_x_at) / RFU CCDC152 (11743942_at) / Fold change /veh CCDC152 (11743942_at) / RFU ECM1 (11717891_a_at) / Fold change /veh ECM1 (11717891_a_at) / RFU IL23R (11748794_a_at) / Fold change /veh IL23R (11748794_a_at) / RFU TNFAIP8L3 (11732012_x_at) / Fold change /veh TNFAIP8L3 (11732012_x_at) / RFU MBOAT4 (11741988_at) / Fold change /veh MBOAT4 (11741988_at) / RFU 11764193_at / Fold change /veh 11764193_at / RFU TMEM53 (11763286_at) / Fold change /veh TMEM53 (11763286_at) / RFU MAGEB2 (11727129_at) / Fold change /veh MAGEB2 (11727129_at) / RFU TMEM200A (11744735_a_at) / Fold change /veh TMEM200A (11744735_a_at) / RFU CCDC152 (11751479_a_at) / Fold change /veh CCDC152 (11751479_a_at) / RFU FAM211A (11726209_a_at) / Fold change /veh FAM211A (11726209_a_at) / RFU RGS16 (11746705_a_at) / Fold change /veh RGS16 (11746705_a_at) / RFU VCAN (11755009_s_at) / Fold change /veh VCAN (11755009_s_at) / RFU RHOB (11743442_s_at) / Fold change /veh RHOB (11743442_s_at) / RFU RGS16 (11720943_a_at) / Fold change /veh RGS16 (11720943_a_at) / RFU RGS16 (11720944_at) / Fold change /veh RGS16 (11720944_at) / RFU, VPS4B / Fold change vs veh, VPS4B / RFU, CREB1 / Fold change vs veh, CREB1 / RFU, DNAJC13 / Fold change vs veh, DNAJC13 / RFU, GNAQ / Fold change vs veh, GNAQ / RFU, CDK5R1 / Fold change vs veh, CDK5R1 / RFU, ZRANB3 / Fold change vs veh, ZRANB3 / RFU, CUL4A / Fold change vs veh, CUL4A / RFU, CCNY / Fold change vs veh, CCNY / RFU, UFL1 / Fold change vs veh, UFL1 / RFU, COG3 / Fold change vs veh, COG3 / RFU, DIAPH2 / Fold change vs veh, DIAPH2 / RFU, SKA2 / Fold change vs veh, SKA2 / RFU, AFF3 / Fold change vs veh, AFF3 / RFU, LMF1 / Fold change vs veh, LMF1 / RFU, IPO11 / Fold change vs veh, IPO11 / RFU, DFFB / Fold change vs veh, DFFB / RFU, FOXP1 / Fold change vs veh, FOXP1 / RFU, CARD8 / Fold change vs veh, CARD8 / RFU, STRN3 / Fold change vs veh, STRN3 / RFU, ADK / Fold change vs veh, ADK / RFU, RASSF2 / Fold change vs veh, RASSF2 / RFU, WIPF1 / Fold change vs veh, WIPF1 / RFU, LARP1B / Fold change vs veh, LARP1B / RFU, RASA1 / Fold change vs veh, RASA1 / RFU, RB1 / Fold change vs veh, RB1 / RFU, PPFIA1 / Fold change vs veh, PPFIA1 / RFU, MAT2A / Fold change vs veh, MAT2A / RFU, CCT5 / Fold change vs veh, CCT5 / RFU, WDR92 / Fold change vs veh, WDR92 / RFU, CUX1 / Fold change vs veh, CUX1 / RFU, TTC7A / Fold change vs veh, TTC7A / RFU, TMEM135 / Fold change vs veh, TMEM135 / RFU, DEPTOR / Fold change vs veh, DEPTOR / RFU, CPM / Fold change vs veh, CPM / RFU, DNAJB6 / Fold change vs veh, DNAJB6 / RFU, CACNA2D3 / Fold change vs veh, CACNA2D3 / RFU, DTX4 / Fold change vs veh, DTX4 / RFU, TFCP2 / Fold change vs veh, TFCP2 / RFU, GMCL1 /// GMCL1P1 / Fold change vs veh, GMCL1 /// GMCL1P1 / RFU, AEBP2 / Fold change vs veh, AEBP2 / RFU, SNHG1 /// SNORD22 /// SNORD25 /// SNORD26 /// SNORD27 /// SNORD28 /// SNORD29 /// SNORD31 / Fold change vs veh, SNHG1 /// SNORD22 /// SNORD25 /// SNORD26 /// SNORD27 /// SNORD28 /// SNORD29 /// SNORD31 / Fold change (Aza/veh), C12orf56 (ProbeSet 11735607_a_at) / Fold change (ACY-1035/veh), C12orf56 (ProbeSet 11735607_a_at) / Fold change (Aza/veh), FGFR1OP (ProbeSet 11751329_s_at) / Fold change (ACY-1035/veh), FGFR1OP (ProbeSet 11751329_s_at) / Fold change (Aza/veh), VPS36 (ProbeSet 11739960_a_at) / Fold change (ACY-1035/veh), VPS36 (ProbeSet 11739960_a_at) / RFU SYPL1 (11715823_x_at) / Fold change /veh SYPL1 (11715823_x_at) / RFU IGFBP7 (11715501_s_at) / Fold change /veh IGFBP7 (11715501_s_at) / RFU REEP3 (11722064_at) / Fold change /veh REEP3 (11722064_at) / RFU IGLL1 (11728026_x_at) / Fold change /veh IGLL1 (11728026_x_at): dose or concentration left out as unconfirmed. The format is cell-based, human.

For the compound `Nc1ncn([C@@H]2O[C@H](CO)[C@@H](O)[C@H]2O)c(=O)n1` [azacitidine], the “RFU, TMA16” value was found to be 152.00 RFU.
